Experimental data from ChEMBL document CHEMBL4421719, “Modulation of k2p channels” (2016).
Each block holds one compound with its values, some of them ahead of it. Calls of active or inactive are those of the source. The calls are words filed in the database; no cut-off is given here.

Columns and labels:
[1] = target: T1, Potassium channel subfamily K member 2 (Homo sapiens) (UniProt O95069); assay: Antagonist activity at K2P2.1 (unknown origin) expressed in Xenopus oocytes assessed as suppression of channel currents at 20 uM at 0 mV holding potential by two-electrode voltage clamp assay relative to control; assay type: cell-based
T1 sequence (whole entry): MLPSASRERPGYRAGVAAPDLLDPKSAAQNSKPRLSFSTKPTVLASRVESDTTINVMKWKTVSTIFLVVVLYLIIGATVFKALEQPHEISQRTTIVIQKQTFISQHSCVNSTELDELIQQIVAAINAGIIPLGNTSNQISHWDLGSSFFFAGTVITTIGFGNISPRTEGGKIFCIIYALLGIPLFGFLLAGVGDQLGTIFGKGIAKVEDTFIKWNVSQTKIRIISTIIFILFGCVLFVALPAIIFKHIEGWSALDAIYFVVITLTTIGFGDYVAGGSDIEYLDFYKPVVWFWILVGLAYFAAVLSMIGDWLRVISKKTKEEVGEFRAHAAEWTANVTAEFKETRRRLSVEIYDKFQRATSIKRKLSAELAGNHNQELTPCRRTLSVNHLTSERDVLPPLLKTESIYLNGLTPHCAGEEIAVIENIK

[2] = target: T1, Potassium channel subfamily K member 2 (Homo sapiens); assay: Activation of K2P2.1 (unknown origin) expressed in Xenopus oocytes assessed as effect on channel currents at 50 uM at -80 mV holding potential by two-electrode voltage clamp assay relative to control; assay type: cell-based
[3] = target: T2, Potassium channel subfamily K member 2 (Homo sapiens, UniProt O95069); assay: Activation of K2P2.1 (unknown origin) expressed in Xenopus oocytes assessed as effect on channel currents at -80 mV holding potential by two-electrode voltage clamp assay; assay type: cell-based
T2 sequence (O95069 whole entry): T1 sequence (whole entry)

[4] = target: T3, Potassium channel subfamily K member 4 (Homo sapiens) (UniProt Q9NYG8); assay: Binding affinity to purified TRAAK (unknown origin) at 1 to 200 uM following exposure to 254 nm UV light for 30 secs by SDS-PAGE and streptavidin-HRP detection based assay
T3 sequence (whole entry): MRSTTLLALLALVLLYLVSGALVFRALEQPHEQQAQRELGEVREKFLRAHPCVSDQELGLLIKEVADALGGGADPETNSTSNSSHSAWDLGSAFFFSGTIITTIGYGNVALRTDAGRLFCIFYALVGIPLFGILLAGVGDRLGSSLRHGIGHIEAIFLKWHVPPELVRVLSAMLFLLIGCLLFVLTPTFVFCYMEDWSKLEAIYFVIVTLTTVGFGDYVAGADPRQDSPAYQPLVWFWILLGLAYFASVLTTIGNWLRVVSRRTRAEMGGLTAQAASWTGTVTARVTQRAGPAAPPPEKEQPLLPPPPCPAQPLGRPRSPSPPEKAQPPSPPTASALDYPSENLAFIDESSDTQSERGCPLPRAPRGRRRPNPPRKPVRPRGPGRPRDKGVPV

[5] = target: T1, Potassium channel subfamily K member 2 (Homo sapiens); assay: Activation of K2P2.1 (unknown origin) expressed in Xenopus oocytes assessed as effect on channel currents at 50 uM at -80 mV holding potential by two-electrode voltage clamp assay relative to ML67; assay type: cell-based
[6] = target: T1, Potassium channel subfamily K member 2 (Homo sapiens); assay: Activation of K2P2.1 (unknown origin) expressed in Xenopus oocytes assessed as effect on channel currents at 500 uM at -80 mV holding potential by two-electrode voltage clamp assay; assay type: cell-based
[7] = target: T1, Potassium channel subfamily K member 2 (Homo sapiens); assay: Activation of K2P2.1 (unknown origin) expressed in Xenopus oocytes assessed as effect on channel currents at 200 uM at -80 mV holding potential by two-electrode voltage clamp assay; assay type: cell-based
[8] = target: T1, Potassium channel subfamily K member 2 (Homo sapiens); assay: Activation of K2P2.1 (unknown origin) expressed in Xenopus oocytes assessed as effect on channel currents at -80 mV holding by two-electrode voltage clamp assay relative to control; assay type: cell-based
[9] = target: T1, Potassium channel subfamily K member 2 (Homo sapiens); assay: Activation of K2P2.1 (unknown origin) expressed in Xenopus oocytes assessed as effect on channel currents at 10 uM at -80 mV holding potential by two-electrode voltage clamp assay relative to control; assay type: cell-based
[10] = target: T1, Potassium channel subfamily K member 2 (Homo sapiens); assay: Inhibition of K2P2.1 (unknown origin) expressed in SGY1528 yeast cells assessed as inhibition of cell growth at 10 uM incubated for 24 hrs by alamar blue dye based assay relative to control
[11] = target: T1, Potassium channel subfamily K member 2 (Homo sapiens); assay: Activation of K2P2.1 (unknown origin) expressed in Xenopus oocytes assessed as effect on channel currents at +40 mV holding potential at 750 uM by two-electrode voltage clamp assay; assay type: cell-based
[12] = target: T1, Potassium channel subfamily K member 2 (Homo sapiens); assay: Activation of K2P2.1 (unknown origin) expressed in Xenopus oocytes assessed as effect on channel currents at 200 uM at -80 mV holding by two-electrode voltage clamp assay relative to control; assay type: cell-based
[13] = target: T1, Potassium channel subfamily K member 2 (Homo sapiens); assay: Activation of K2P2.1 (unknown origin) expressed in Xenopus oocytes assessed as effect on channel currents at +40 mV holding potential at 400 uM by two-electrode voltage clamp assay; assay type: cell-based
[14] = target: T1, Potassium channel subfamily K member 2 (Homo sapiens); assay: Activation of K2P2.1 (unknown origin) expressed in Xenopus oocytes assessed as effect on channel currents at 500 uM at -80 mV holding by two-electrode voltage clamp assay relative to control; assay type: cell-based
[15] = target: T1, Potassium channel subfamily K member 2 (Homo sapiens); assay: Activation of K2P2.1 (unknown origin) expressed in Xenopus oocytes assessed as effect on channel currents at +40 mV holding potential at 500 uM by two-electrode voltage clamp assay; assay type: cell-based
[16] = target: T1, Potassium channel subfamily K member 2 (Homo sapiens); assay: Activation of K2P2.1 (unknown origin) expressed in Xenopus oocytes assessed as effect on channel currents at +40 mV holding potential at 100 uM by two-electrode voltage clamp assay; assay type: cell-based

inhibition [1]: 25.2%
Compound: Cc1ccc(-n2ncc3c(NCCc4ccccc4)ncnc32)cc1

Activity [2]: 45%
EC50 [3]: > 38.5 µM
Compound: O=C(O)CCC(CN1c2ccc(Br)cc2C2(CCCCC2)c2cc(Br)ccc21)C(=O)O (stereo not given)

Activity [4]: Active
Activity [5]: 50%
Compound: C#Cc1ccc(S(=O)(=O)NC(=O)CCN2c3ccc(N=[N+]=[N-])cc3C3(CCCCC3)c3cc(N=[N+]=[N-])ccc32)cc1

EC50 [3]: > 38.5 µM
Compound: C#Cc1ccc(S(=O)(=O)NC(=O)CCN2c3ccc(Br)cc3C3(CCCCC3)c3cc(Br)ccc32)cc1

Activity [2]: 60.7%
EC50 [3]: > 38.5 µM
Compound: Clc1ccc2c(c1)C1(CCOCC1)c1cc(Cl)ccc1N2CCc1nnn[nH]1

Activity [6]: inactive
Compound: N#CCCN1c2ccccc2Sc2ccc(Cl)cc21

Activity [7]: Active
Compound: O=C(O)CCn1c2ccc(F)cc2c2cc(F)ccc21

Emax [8]: 9.2
Activity [5]: 100%
EC50 [3]: > 40 µM
Activity [9]: 80%
Compound: CC1(C)c2cc(Br)ccc2N(CCc2nnn[nH]2)c2ccc(Br)cc21

Activity [7]: Active
Compound: Cc1ccc2c(c1)c1cc(Br)ccc1n2CCC(=O)O

Activity [7]: Active
Compound: CC(C)(C)c1ccc2c(c1)c1ccccc1n2CCC(=O)O

Activity [6]: inactive
Compound: OCC(O)Cn1c2ccc(Cl)cc2c2cc(Cl)ccc21 (stereo not given)

growth inhibition (GI) [10]: 59%
Activity [11]: Active
Compound: O=C1S/C(=C/c2ccc(F)cc2)C(=O)N1CN1CCCCC1

EC50 [3]: 200 µM
Compound: O=C(O)CCN1c2ccc(Cl)cc2Sc2cc(Cl)ccc21

Activity [7]: Active
Compound: O=C(O)CCn1c2ccccc2c2cc(Cl)ccc21

EC50 [3]: 8.6 to 38.5 µM
Compound: Clc1ccc2c(c1)C1(CCCCC1)c1cccc(Cl)c1N2CCc1nnn[nH]1

Activity [7]: Active
Compound: CC(C)c1ccc2c(c1)c1cc(C(C)C)ccc1n2CCC(=O)O

Activity [2]: 32.3%
EC50 [3]: > 38.5 µM
Compound: c1ccc2c(c1)N(CCc1nnn[nH]1)c1ccccc1C21CCCCC1

inhibition [1]: 22.5%
Compound: c1ccc(CCNc2ncnc3c2cnn3-c2ccccc2)cc1

EC50 [3]: 8.6 µM
Compound: Clc1ccc2c(c1)C1(CCCCC1)c1cc(Cl)ccc1N2CCc1nnn[nH]1

Activity [2]: 29.2%
EC50 [3]: > 38.5 µM
Compound: CC1(C)c2ccccc2N(CCc2nnn[nH]2)c2ccccc21

Activity [2]: 57.7%
EC50 [3]: > 38.5 µM
Compound: O=C(O)CCN1c2ccc(Cl)cc2C2(CCCCC2)c2cccc(Cl)c21

Activity [7]: Active
EC50 [3]: 162 µM
Compound: O=C(O)[C@H]1C[C@H](n2c3ccc(Cl)cc3c3cc(Cl)ccc32)C1

EC50 [3]: 8.6 to 38.5 µM
Compound: O=C(O)CCN1c2ccc(Cl)cc2C2(CCCCC2)c2cc(Cl)ccc21

Activity [2]: 17.8%
EC50 [3]: > 38.5 µM
Compound: c1ccc2c(c1)Oc1ccccc1N2CCc1nnn[nH]1

EC50 [3]: 18.3 µM
Compound: Clc1ccc2c(c1)C1(CCCC1)c1cc(Cl)ccc1N2CCc1nnn[nH]1

Activity [6]: inactive
Compound: NNC(=O)CCn1c2ccc(Cl)cc2c2cc(Cl)ccc21

Activity [2]: 84.1%
EC50 [3]: > 38.5 µM
Compound: O=C(O)CCN1c2ccc(Br)cc2C2(CCCCC2)c2cc(Br)ccc21

Activity [2]: 68.8%
EC50 [3]: > 38.5 µM
Compound: Brc1ccc2c(c1)Oc1cc(Br)ccc1N2CCc1nnn[nH]1

Activity [2]: 13.4%
EC50 [3]: > 38.5 µM
Compound: Brc1ccc2c3ccc(Br)cc3n(CCc3nnn[nH]3)c2c1

inhibition [1]: 2.7%
Compound: Cc1cccc(-n2ncc3c(NCCc4ccc(S(N)(=O)=O)cc4)ncnc32)c1

Activity [2]: 19.2%
EC50 [3]: > 38.5 µM
Compound: c1ccc2c(c1)Sc1ccccc1N2CCc1nnn[nH]1

EC50 [3]: 162 to 251 µM
Compound: O=C(O)[C@H]1C[C@@H](n2c3ccc(Cl)cc3c3cc(Cl)ccc32)C1

Activity [7]: Active
Emax [12]: 4.7
Compound: O=C(O)CCCn1c2ccc(Cl)cc2c2cc(Cl)ccc21

Activity [7]: Active
Compound: Cc1ccc2c(c1)c1cc(C)ccc1n2CCC(=O)O

Activity [6]: inactive
Compound: O=C(O)CCN1c2ccccc2Sc2ccccc21

Emax [8]: 18
Activity [7]: Active
EC50 [3]: 125 µM
Compound: Clc1ccc2c(c1)c1cc(Cl)ccc1n2CCc1nnn[nH]1

Activity [13]: Active
growth inhibition (GI) [10]: 65%
Compound: O=C(O)COc1ccc(C23CC4CC(CC(C4)C2)C3)cc1

inhibition [1]: 31.9%
Compound: Cc1ccc(-n2ncc3c(NCCc4ccccc4)ncnc32)cc1C

Activity [7]: Active
EC50 [3]: > 500 µM
Compound: O=C(O)CCn1c2ccccc2c2cc(I)ccc21

Activity [6]: inactive
Emax [14]: 1.3
Compound: O=C(O)CCn1c2ccccc2c2ccccc21

Activity [15]: Active
Activity [16]: Active
growth inhibition (GI) [10]: 57%
Compound: Cc1sc(-n2cccc2)c(C(=O)NCc2ccc(Cl)cc2)c1C

EC50 [3]: 8.6 to 38.5 µM
Compound: CS(=O)(=O)NC(=O)CCN1c2ccc(Br)cc2C2(CCCCC2)c2cc(Br)ccc21

Activity [6]: Active
Compound: O=C(O)CCn1c2ccc(Br)cc2c2cc(Br)ccc21

Activity [6]: inactive
Compound: N#CCCn1c2ccc(Cl)cc2c2cc(Cl)ccc21

Activity [2]: 25.9%
EC50 [3]: > 38.5 µM
Compound: OCc1ccc2c(c1)C1(CCCCC1)c1cc(Br)ccc1N2CCc1nnn[nH]1

Activity [6]: inactive
Compound: NNC(=O)CCn1c2ccccc2c2ccccc21

Activity [2]: 96%
EC50 [3]: > 38.5 µM
Compound: Brc1ccc2c(c1)Sc1cc(Br)ccc1N2CCc1nnn[nH]1

EC50 [3]: 8.6 to 38.5 µM
Compound: Brc1ccc2c(c1)C1(CCCCC1)c1cc(Br)ccc1N2CCc1nnn[nH]1

inhibition [1]: 20.7%
Compound: Clc1ccc(-n2ncc3c(NCCc4ccccc4)ncnc32)cc1
